Data from patent US8785692B2, “Substituted phenylamidines and the use thereof as fungicides” (priority 2007, dated 2014).
Read-outs that look alike come from different tables or passages of the source.

Key:
[1] = logP (neutral / acidic, pH 2.3)
Sphaerotheca fuliginea = assay: Sphaerotheca test (cucumber) / protective; format: in vivo; details: Podosphaera fuliginea, 168 h; cucumber, protective, 500 ppm active compound, evaluation 7 days after inoculation; read-out: efficacy
Procedure: Sphaerotheca Test (Cucumber)/Protective
Solvent: 49 parts by weight of N,N-dimethylformamide
Emulsifier: 1 part by weight of alkylaryl polyglycol ether
To produce a suitable preparation of active compound, 1 part by weight of active compound is mixed with the stated amounts of solvent and emulsifier, and the concentrate is diluted with water to the desired concentration.
To test for protective activity, young cucumber plants are sprayed with the active compound preparation at the stated application rate. 1 day after the treatment, the plants are inoculated with a spore suspension of Sphaerotheca fuliginea. The plants are then placed in a greenhouse at 70% relative atmospheric humidity and a temperature of 23° C.
Evaluation is carried out 7 days after the inoculation. 0% means an efficacy which corresponds to that of the control, whereas an efficacy of 100% means that no infection is observed.

logP ([1]; pH 2.3) | logP [1] | SMILES | pest or weed control at 500 ppm (Sphaerotheca fuliginea)
2.38 | 5.33 | CCN(C)C=Nc1cc(C)c(/C(C)=N/OC(C2CC2)C2CC2)cc1C [Compound 20, N′-{4-[(1E)-N-(dicyclopropylmethoxy)ethanimidoyl]-2,5-dimethylphenyl}-N-ethyl-N-methylimidoformamide] | ≥ 70%
1.76 | 4.41 | CCN(C)C=Nc1cc(C)c(/C=N/OC(C)C)cc1C [Compound 40, N-ethyl-N′-{4-[(E)-(isopropoxyimino)methyl]-2,5-dimethylphenyl}-N-methylimidoformamide] | ≥ 70%

The next lines start with the molecule.

SMILES | logP ([1]; pH 2.3) | logP [1] | pest or weed control at 500 ppm (Sphaerotheca fuliginea)
CCN(C)C=Nc1cc(C)c(/C=N/OCc2ccccc2)cc1C [Compound 3, N′-(4-{(E)-[(benzyloxy)imino]methyl}-2,5-di-methylphenyl)-N-ethyl-N-methylimidoformamide] | 2.02 | – | ≥ 70%
CCN(C)C=Nc1cc(C)c(/C(C)=N/OCc2c(C)noc2C)cc1C [Compound 36, N′-(4-{(1E)-N-[(3,5-dimethylisoxazol-4-yl)methoxy]ethanimidoyl}-2,5-dimethylphenyl)-N-ethyl-N-methylimidoformamide] | 1.68 | 3.63 | ≥ 70%
CCN(C)C=Nc1cc(C)c(/C(C)=N/OCCOc2cccc(C(F)(F)F)c2)cc1C [Compound 34, N′-{2,5-dimethyl-4-[(1E)-N-{2-[3-(trifluoromethyl)phenoxy]ethoxy}ethan-imidoyl]phenyl}-N-ethyl-N-methylimidoformamide] | 2.59 | 5.28 | ≥ 70%
CCN(C)C=Nc1cc(C)c(/C(C)=N/OCC(F)(F)F)cc1C [Compound 17, N′-{2,5-dimethyl-4-[(1E)-N-(2,2,2-trifluoroethoxy)ethanimidoyl]phenyl}-N-ethyl-N-methylimidoformamide] | 1.88 | 4.24 | ≥ 70%
